# Measured values published in patent US20150071856A1, “ANTAGONISTIC PEPTIDES FOR FRIZZLED-1 AND FRIZZLED-2” (Universiteit Maastricht, priority 2013, published 2015).
# Entries after “also recorded” stand apart in the source; their conditions may differ. Residues, ends and D or L forms follow the SMILES beside them.
# Columns and labels:
# [1] = system: mouse and human Fzd-1 and -2; test: Antagonism of activation of mouse and human Fzd-1 and -2 by Wnt3a (data not shown); format: cell-based
# Description: (§1) In FIG. 3, Panel E, the efficacy of UM206 to block the Wnt3a-induced activation of luciferase activity in HEK293 superTOPflash cells transfected with different Fzds is shown.
# infarct area = test: Histological, qPCR and Western blot analysis of the infarct area in mice; format: in vivo
# Description: This was confirmed by histological analysis of the infarct area.
# RNA was isolated using the Trizol method (Invitrogen). For the RT-PCR, the RNA was transcribed to cDNA with Iscript™ cDNA synthesis kit (Bio-Rad, Hercules Calif., USA), Syber green (Eurogentec, Ghent, Belgium) was used for the detection of cDNA levels and cyclophilin served as the house keeping gene. In Supplementary methods panel 5, the primer sequences are shown.
# For Western blot, cells were homogenized in ice-cold Laemmli buffer and protein content was measured using the BCA protein assay (Pierce Biotechnology Inc., Rockford Ill., USA); proteins were denatured by boiling, separated on a 10% SDS-page gel, and transferred onto a Hybond C nitrocellulose membrane (Amersham Biosciences, Little Chalfont, United Kingdom). After blocking, membranes were incubated overnight at 4° C. with primary antibodies against β-catenin, α-SMA (both 1:2000, BD Biosciences, Franklin Lakes N.J., USA) or β-actin (1:2000 Sigma-Aldrich). Anti-mouse immunoglobulin G 1/5000 (Vector Labs Inc.) was used as the secondary antibody, and the membranes were developed using the Supersignal West Pico chemiluminescence kit (Pierce). Images of the blots were analyzed with image analysis software (Qwin Leica, Cambridge, United Kingdom).
# One-half of the hearts of the mice was embedded in paraffin and cut in 4 μm sections. The paraffin sections were rehydrated and washed in PBS. One section was stained with AZAN, allowing an accurate determination of the infarct size. To visualize the myofibroblasts in the infarct area, the sections were incubated with an antibody directed against α-smooth muscle actin (Sigma-Aldrich), followed by incubation with the peroxidase-conjugated secondary antibody (Vector laboratories). Nuclei were visualized by hematoxylin. Photos were taken with a Leica (CTR500, 63×/0.85) camera and analyzed with the Quantimet program (QWin/QGo). An examiner blinded to the groups of the animals obtained all measurements. For the experiments with Rhodamine-labeled UM206, frozen sections (4 μm) of mouse kidney and small intestine were used.
# hFzd-5 = molecular target: T1, hFzd-5 (Homo sapiens, UniProt Q13467); test: Receptor specificity: luciferase in HEK293 superTOPflash cells overexpressing hFzd-5; format: cell-based; conditions: UM206 1.10^−8 M
# T1 construct: expressed in transfected cells; host or cells: HEK293 superTOPflash (transient, Fugene6, pcDNA3.0)
# T1 sequence (Q13467 27-585): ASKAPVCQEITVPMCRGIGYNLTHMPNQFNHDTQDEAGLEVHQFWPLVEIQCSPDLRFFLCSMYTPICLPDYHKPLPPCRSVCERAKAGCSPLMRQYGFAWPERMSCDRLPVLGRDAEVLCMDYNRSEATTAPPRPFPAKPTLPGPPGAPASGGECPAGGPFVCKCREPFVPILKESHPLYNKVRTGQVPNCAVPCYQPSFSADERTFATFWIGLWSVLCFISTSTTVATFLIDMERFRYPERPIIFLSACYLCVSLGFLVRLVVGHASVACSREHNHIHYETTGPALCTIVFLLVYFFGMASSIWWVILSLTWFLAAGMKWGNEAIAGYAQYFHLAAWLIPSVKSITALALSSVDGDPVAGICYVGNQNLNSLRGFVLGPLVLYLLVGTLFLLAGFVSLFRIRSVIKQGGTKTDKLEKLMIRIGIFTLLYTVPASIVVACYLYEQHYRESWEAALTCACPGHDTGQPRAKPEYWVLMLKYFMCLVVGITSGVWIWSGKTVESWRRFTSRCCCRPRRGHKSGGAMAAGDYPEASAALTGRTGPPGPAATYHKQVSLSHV
# Procedure: as §1
# The cell lines were cultured in 75 cm^2 culture flasks (Corning, Schiphol, the Netherlands) in Dulbeco's modified essential medium with L-glutamine (2 mM), 10% fetal calf serum (Invitrogen, Merelbeke, Belgium), and 1% gentamycin (Sigma-Aldrich, Zwijndrecht, The Netherlands). Before starting the experiment, the cell lines were treated with plasmocin 25 μg/ml (Invivogen, Toulose, France) and tested with a mycoalert mycoplasma detection kit (Lonza, Rockland Me., USA). Cells were transiently transfected with Fugene6 (Roche, Indianapolis Ind., USA) with plasmid DNA, pcDNA3.1/hygro (Invitrogen) with frizzled-1/2/4 or Wnts 3a-5a or with pcDNA3.0 (Invitrogen) containing the β-catenin or frizzled-5 sequence. After transfection, the cells were cultured for 24 hours in conditioned medium, collected from the cultured L-cells, L-cells with Wnt3a or 5a (Invitrogen). At the same moment the antagonist was added.
# [2] = system: C-FIT cells (cardiac fibroblasts immortalized with telomerase); test: Migration assay (wound/scratch assay) with C-FIT cells overexpressing Fzd-1 or -2; format: cell-based, rat
# Procedure: For this assay, we used rat cardiac fibroblasts, which were immortalized with telomerase, the C-FIT cell line. This cell line was characterized previously and resembles features of primary cardiac fibroblasts. C-FIT cells were plated, treated when they were 70% confluent and a wound was made with a pipette tip at the moment of 100% confluence.
# This assay was first tested with the natural ligand Wnt3a, in combination with frizzled-1 and -2 overexpression. […] Next step was to see whether the antagonist could counteract this. (See FIG. 4.)
# Plate cells in 12-well plates
# Transfection (see protocol)
# Addition of conditioned medium
# Make a scratch. This is time point zero.
# Making pictures every six hours and analyzing the scratch width.
# The overexpression of Fzd-1 and -2 in migrating (myo)fibroblasts during infarct healing was one of the first reports of activation of Wnt/Fzd signaling in cardiovascular remodeling (Blankesteijn 1997). To assess the functional relevance of Wnt/Fzd signaling on cardiac fibroblast proliferation, migration and differentiation, a cardiac fibroblast cell line immortalized with telomerase was used, as previously described (Janhunen 2009, Laeremans 2009).
# Cells were plated on day 0, and cultured until 70% confluence before transfection or treatment. […] Scratch width was measured at this time point, and also after 6, 12, and 24 hours.
# infarct rupture = test: Infarct rupture in 12956 mice treated with UM206; format: in vivo; conditions: infarct rupture frequency ˜60%; unpublished observations
# Description: Because of the lack of pharmacological tools to intervene in Wnt/Fzd signaling in vivo, only genetic interventions have been reported so far in studies on the role of Wnt signaling in infarct healing. Barandon et al. were the first to show a beneficial effect of overexpression on infarct healing of FrzA, a bovine homologue of soluble frizzled-related protein-1 (sFRP1). They observed a decreased infarct size with elevated numbers of myofibroblasts and increased angiogenesis in the infarcted FrzA transgenic mice (Barandon et al., 2003), which could be confirmed in the present study using an Fzd-1 and -2 antagonist. […] In the mean time, the beneficial effects of sFRP overexpression on infarct healing have been confirmed by Kobayashi et al. (Kobayashi et al., 2009). Taken together, these reports support the observations of the present study and point to a beneficial effect of inhibiting Wnt/Fzd signaling on the wound-healing process after MI.
# rFzd-1 or -2 = test: TOPflash experiments in CHO and COS-7 cells overexpressing rFzd-1 or -2; format: cell-based, rat
# Description: Three areas of high homology that contained two cysteines are underlined (UM207), (UM208) and (UM206). In FIGS. 9B through 9D, the inhibitory effect of these three peptides on Wnt3a-induced luciferase activity in HEK293-superTOPflash is shown. […] Again, the peptides by themselves had no effect on the luciferase activity.
# For the luciferase experiments not in HEK cells, the cells were additionally transfected with a TOPflash construct, eight TCF/LEF binding sites cloned into the pTA-Luc vector. Luciferase activity was measured using luciferase assay system (Promega, Madison Wis., USA).
smiles,measurement,setting,value
"CSCC[C@H](NC(=O)CNC(=O)[C@H](CCC(=O)O)NC(=O)[C@H](CO)NC(=O)[C@@H](NC(=O)[C@H](CCCCN)NC(=O)[C@H](CC(N)=O)NC(=O)[C@H](CS)NC(C)=O)[C@@H](C)O)C(=O)N[C@@H](CC(=O)O)C(=O)NCC(=O)N[C@@H](CS)C(=O)N[C@@H](CCC(=O)O)C(=O)N[C@@H](CC(C)C)C(N)=O [UM206, Ac-Cys-Asn-Lys-Thr-Ser-Glu-Gly-Met-Asp-Gly-Cys-Glu-Leu-NH2] (Ac-CNKTSEGMDGCEL-NH2)",antagonizing the activation of mouse and human Fzd-1 and -2 by Wnt3a,[1],fully effective
same,infarct area size versus saline,infarct area; 2 and 5 weeks after MI,significantly smaller
same,thickness of the infarct area versus saline,infarct area; 2 and 5 weeks after MI,significantly thicker
same,myofibroblast numbers in the infarct area versus saline,infarct area; five weeks post-MI,significantly elevated number
same,blood vessels in the infarct area versus saline,infarct area; five weeks treatment,increased amount of blood vessels
same,collagen levels in the infarct area versus saline,infarct area; five weeks treatment,reduced collagen levels
same,α-SMA levels in infarcts versus saline,"infarct area; five-week-old infarcts, qPCR and Western blotting",significantly higher α-SMA levels
same,myofibroblast numbers in the infarct area versus saline,infarct area; two weeks post-MI,more than four-fold higher; also recorded: four-fold more myofibroblasts
same,"effect on Wnt3a-induced luciferase activity, frizzled-5",hFzd-5,no effect
same,effect of UM206 alone on cell migration,[2],no effect on cell migration
same,counteraction of Wnt3a/Wnt5a-induced attenuation of migration,"[2]; UM206 1.10^−8 M, Fzd-1 or -2 overexpression",migration was reset to the migration speed of the control; also recorded: blocked completely; also recorded: block this effect completely
same,number of ruptured infarcts,infarct rupture,did not reduce the number of ruptured infarcts
same,inhibition of Wnt3a-induced TOPflash activation in CHO and COS-7 cells,rFzd-1 or -2,can selectively block canonical Wnt/Fzd-1/2 signaling
